Literature values, collected in patent US7655257B2, “Sustained delivery of an active agent using an implantable system” (Intarcia Therapeutics, Inc., priority 1996, dated 2010).

Tests used:
[1] = system: prostatic tumors in Noble and Dunning male rats and DMBA-induced mammary tumors in female rats
[2] = continuous administration, humans

Q: For `CCNC(=O)[C@@H]1CCCN1C(=O)[C@H](CCCNC(=N)N)NC(=O)[C@H](CC(C)C)NC(=O)[C@@H](CC(C)C)NC(=O)[C@H](Cc1ccc(O)cc1)NC(=O)[C@H](CO)NC(=O)[C@H](Cc1c[nH]c2ccccc12)NC(=O)[C@H](Cc1c[nH]cn1)NC(=O)[C@@H]1CCC(=O)N1` [Leuprolide acetate], which “level of LH and FSH” value (gonadotropin secretion; [2]) is on record?
A: decreased level of LH and FSH

Q: What about the testosterone in males (gonadotropin secretion; [2]) of the same compound?
A: reduced to castrate levels

Q: And the “activity when given orally” value (gonadotropin secretion; oral)?
A: not active

Q: What about the “growth of hormone-dependent tumors” value [1] of the same compound?
A: inhibition of the growth
